In PMC4440651, “Thymoquinone Inhibits Escherichia coli ATP Synthase and Cell Growth” (PLoS ONE, 2015):

Target: T1, E. coli F1Fo ATP synthase (F1-ATPase) (Escherichia coli, UniProt P0ABA6+P0ABB0+P0ABB4)
T1 construct: gene atpD; with F1 alpha (atpA), gamma (atpG), delta and epsilon subunits; Fo (ab2c10–14) in the membrane preparation
Assay: ATPase activity assay (liberated Pi) on purified F1 and F1Fo membranes; reversal by dilution or centrifuge column
Type: biochemical

With `CC1=CC(=O)C(C(C)C)=CC1=O` [TQ, thymoquinone] as the compound, how does the IC50 read?
Its IC50 is ~37 µM.
